Measurements reported in US9062002B2, “Substituted pyridine derivatives as FabI inhibitors” (Aurigene Discovery Technologies Limited, priority 2011, dated 2015).
Values after ≈ are worked out from the molar mass of the structure shown.

Columns and labels:
[1] = test system: MSSA; test: MIC by broth microdilution method; assay type: cell-based; details: Staphylococcus aureus, MRSA / MSSA; MSSA, broth microdilution; read-out: MIC Vs MRSA (μg/ml) MSSA
[2] = test system: MRSE; test: MIC by broth microdilution method; assay type: cell-based; details: Staphylococcus epidermidis, MRSA / MRSE; MRSE, broth microdilution; read-out: MIC Vs MRSA (μg/ml) MRSE
[3] = test system: MRSA; test: MIC by broth microdilution method; assay type: cell-based; details: Staphylococcus aureus; MRSA, broth microdilution; read-out: MIC Vs MRSA (μg/ml) MRSA
[4] = Metabolic stability study in mouse liver microsomes; assay type: in vitro ADME; details: 1 μM, 37° C.
Description: The above selected compounds have protected mice from infection at ED50 doses. Metabolic Stability Study: In vitro metabolic stability of the compounds was done in mouse liver microsomes prepared in house as per standard protocol. Compounds were tested at 1 μM concentration. Compounds were incubated for 15 and 60 minutes at 37° C. with 100 rpm in shaker bath. After the incubation samples were analysed by LC/MS (API-4000). Respective control (Propranalol) was included in the study.

SMILES	MIC [1] [µg/mL]	MIC [2] [µg/mL]	MIC [3] [µg/mL]	Percentage of compound remained after 15 min [4] [%]	Percentage of compound remained after 60 min [4] [%]
CC(=O)N1CCC2(CC1)Cc1cc(/C=C/C(=O)N3CC=C(Cc4cccs4)CC3)cnc1NC2=O [Compound 96, (E)-1′-acetyl-6-(3-oxo-3-(4-(thiophen-2-ylmethyl)-5,6-dihydropyridin-1(2H)-yl)prop-1-en-1-yl)-1H-spiro[[1,8]naphthyridine-3,4′-piperidin]-2(4H)-one]	8 (≈ 16.3 µM)	16 (≈ 32.6 µM)	8 (≈ 16.3 µM)	–	–
O=C(/C=C/c1cnc2c(c1)CC1(CCN(C(=O)CO)CC1)C(=O)N2)N1CC=C(Cc2cccs2)CC1 [Compound 138, (E)-1′-(2-hydroxyacetyl)-6-(3-oxo-3-(4-(thiophen-2-ylmethyl)-5,6-dihydropyridin-1(2H)-yl)prop-1-en-1-yl)-1H-spiroa[[1,8]naphthyridine-3,4′-piperidin]-2(4H)-one]	–	–	–	44.3	10.2
CC(C)CC(=O)N1CCC2(CC1)Cc1cc(/C=C/C(=O)N3CC=C(Cc4cccs4)CC3)cnc1NC2=O [Compound 140, (E)-1′-(3-methylbutanoyl)-6-(3-oxo-3-(4-(thiophen-2-ylmethyl)-5,6-dihydropyridin-1(2H)-yl)prop-1-en-1-yl)-1H-spiro[[1,8]naphthyridine-3,4′-piperidin]-2(4H)-one]	–	–	–	1.9	1.7
O=C(/C=C/c1cnc2c(c1)CN(CCN1CCC3(CC1)COC3)C(=O)N2)N1CC=C(Cc2cccs2)CC1 [Compound 147, (E)-3-(2-(2-oxa-7-azaspiro[3.5]nonan-7-yl)ethyl)-6-(3-oxo-3-(4-(thiophen-2-ylmethyl)-5,6-dihydropyridin-1(2H)-yl)prop-1-en-1-yl)-3,4-dihydropyrido[2,3-d]pyrimidin-2(1H)-one]	–	–	–	4.0	2.2
CN1CCC2(CC1)Cc1cc(/C=C/C(=O)N3CC=C(Cc4cccs4)CC3)cnc1NC2=O [Compound 146, (E)-1′-methyl-6-(3-oxo-3-(4-(thiophen-2-ylmethyl)-5,6-dihydropyridin-1(2H)-yl)prop-1-en-1-yl)-1H-spiro[[1,8]naphthyridine-3,4′-piperidin]-2(4H)-one]	–	–	–	57.9	15.8
NC(=O)N1CCC2(CC1)Cc1cc(/C=C/C(=O)N3CC=C(Cc4cccs4)CC3)cnc1NC2=O [Compound 139, (E)-2-oxo-6-(3-oxo-3-(4-(thiophen-2-ylmethyl)-5,6-dihydropyridin-1(2H)-yl)prop-1-en-1-yl)-2,4-dihydro-1H-spiro[[1,8]naphthyridine-3,4′-piperidine]-1′-carboxamide]	–	–	–	21.6	7.3

Other lines, results leading:

MIC [1] [µg/mL]	MIC [2] [µg/mL]	MIC [3] [µg/mL]	Percentage of compound remained after 15 min [4] [%]	Percentage of compound remained after 60 min [4] [%]	SMILES
0.12 (≈ 0.304 µM)	0.25 (≈ 0.634 µM)	0.25 (≈ 0.634 µM)	–	–	O=C1CNCc2cc(/C=C/C(=O)N3CC=C(Cc4cccs4)CC3)cnc2N1 [Compound 92, (E)-7-(3-oxo-3-(4-(thiophen-2-ylmethyl)-5,6-dihydropyridin-1(2H)-yl)prop-1-en-1-yl)-4,5-dihydro-1H-pyrido[2,3-e][1,4]diazepin-2(3H)-one]
–	–	–	27.5	15.8	O=C1CCNc2cc(/C=C/C(=O)N3CC=C(Cc4nccs4)CC3)cnc2N1 [Compound 143, (E)-8-(3-oxo-3-(4-(thiazol-2-ylmethyl)-5,6-dihydropyridin-1(2H)-yl)prop-1-en-1-yl)-2,3-dihydro-1H-pyrido[2,3-b][1,4]diazepin-4(5H)-one]
–	–	–	83.3	60.2	O=C1CCc2cc(/C=C/C(=O)N3CC=C(Cc4cncs4)CC3)cnc2N1 [Compound 145]
–	–	–	86.8	57.1	Cc1cnc(CC2=CCN(C(=O)/C=C/c3cnc4c(c3)CCC(=O)N4)CC2)s1 [Compound 57]
